Target: T1, Met receptor (EGFR/Met chimeric cells, EMR) (Homo sapiens, UniProt P08581)
T1 construct: expressed in transfected cells; the other entry of the earlier key: EGFR (P00533, Epidermal growth factor receptor)
Assay: Met Autophosphorylation Assay
Type: biochemical
Conditions: protocol P.130
In short: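 Met phosphorylation was measured by capture ELISA. Lysates (90 μg/100 μl, HNTG plus 1 mM PMSF) from transiently transfected EGFR/Met chimera (EMR) cells were bound for 60 min at room temperature to wells holding rabbit anti-Met (C-28) on goat anti-rabbit coat. Phosphotyrosine was the read-out.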

T1 sequence (P08581 with tags, fused parts or gaps): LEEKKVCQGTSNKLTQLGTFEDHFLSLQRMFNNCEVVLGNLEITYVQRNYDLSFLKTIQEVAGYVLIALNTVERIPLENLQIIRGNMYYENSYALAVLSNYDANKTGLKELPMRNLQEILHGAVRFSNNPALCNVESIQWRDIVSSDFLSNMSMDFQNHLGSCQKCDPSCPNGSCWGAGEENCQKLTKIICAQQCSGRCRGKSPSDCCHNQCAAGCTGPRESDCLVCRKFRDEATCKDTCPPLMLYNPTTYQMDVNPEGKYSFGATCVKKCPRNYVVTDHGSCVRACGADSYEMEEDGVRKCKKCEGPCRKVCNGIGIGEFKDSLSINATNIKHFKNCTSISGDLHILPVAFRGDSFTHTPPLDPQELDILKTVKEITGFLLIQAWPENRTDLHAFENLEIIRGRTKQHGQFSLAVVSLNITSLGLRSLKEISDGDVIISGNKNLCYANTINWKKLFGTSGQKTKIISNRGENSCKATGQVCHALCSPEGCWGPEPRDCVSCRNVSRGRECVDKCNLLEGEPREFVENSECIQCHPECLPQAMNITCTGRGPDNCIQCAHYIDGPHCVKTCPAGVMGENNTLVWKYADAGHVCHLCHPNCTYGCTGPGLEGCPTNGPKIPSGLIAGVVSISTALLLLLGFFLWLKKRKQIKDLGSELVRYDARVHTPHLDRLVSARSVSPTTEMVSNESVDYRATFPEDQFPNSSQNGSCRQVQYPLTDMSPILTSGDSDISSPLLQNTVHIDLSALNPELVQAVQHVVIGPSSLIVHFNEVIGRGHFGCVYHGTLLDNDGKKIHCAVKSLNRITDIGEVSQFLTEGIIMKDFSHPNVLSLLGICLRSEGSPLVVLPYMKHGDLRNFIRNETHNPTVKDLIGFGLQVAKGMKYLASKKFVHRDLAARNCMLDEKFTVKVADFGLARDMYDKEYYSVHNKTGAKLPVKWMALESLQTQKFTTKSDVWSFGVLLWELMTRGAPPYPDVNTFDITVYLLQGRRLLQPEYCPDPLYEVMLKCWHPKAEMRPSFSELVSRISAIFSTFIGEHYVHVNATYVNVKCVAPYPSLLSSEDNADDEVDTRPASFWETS

Row | SMILES | Met Kinase % Inhibition (P.130) [%]
1 | CNS(=O)(=O)c1ccc2c(c1)C(=Cc1cccc(Oc3cccc(C(F)(F)F)c3)c1)C(=O)N2 [10737/D11] | 43.4
2 | Cc1c(Br)cc(Br)c2c1C(=Cc1cccc(F)c1)C(=O)N2 [10736/H07] | 31.0
3 | O=C1Nc2ccc(CCCl)cc2C1=Cc1cccc(Oc2cccc(C(F)(F)F)c2)c1 [10737/G11] | 35.1
4 | CCOc1ccc(C=C2C(=O)Nc3ccc(S(=O)(=O)Nc4ccc(C(F)(F)F)cc4)cc32)cc1 [10737/E02] | 53.0
5 | Cc1c(Br)ccc2c1C(=Cc1cc(F)ccc1F)C(=O)N2 [10737/C04] | 82.0
6 | O=C1Nc2c(Br)cc(Br)cc2C1=Cc1cc(F)ccc1F [10737/A04] | 63.5
7 | CCc1ccc(C=C2C(=O)Nc3c(Br)cc(Br)c(C)c32)cc1 [10736/H09] | 32.1
8 | O=C1Nc2ccc(I)cc2C1=Cc1ccc(Oc2ccccc2)cc1 [10737/B09] | 77.0
9 | O=C1Nc2c(Br)cc(Br)cc2C1=Cc1ccc(Oc2ccccc2)cc1 [10737/A09] | 47.9
10 | Cc1ccc(C)c(C=C2C(=O)Nc3ccc(S(=O)(=O)N4CCOCC4)cc32)c1 [10737/F07] | 33.3
